Laboratory results published in the NIST ThermoML archive (doi:10.1021/je7001418).

Test: cn = amount concentration of the nth substance listed, in mol/dm3
Details: 298.15 K, 101.3 kPa, Liquid; for viscosity: Capillary tube (Ostwald / Ubbelohde) method; for mass density: Pycnometric method

C[N+](C)(C)C.[I-] [tetramethylammonium iodide] + O
Details | mass density [kg/m3] | viscosity [mPa·s]
c1 = 0.05 | 1001 | 0.805
c1 = 0.1 | 1003 | 0.812
c1 = 0.15 | 1009 | 0.819
